Source: PubChem BioAssay AID2060897 (Molecular Pharmacology Branch, DTP, NCI, 2025)

Test system: 966289-007-R4-J1-PDC complex spheroid viability
Test: Anticancer human tumor 966289-007-R4-J1-PDC patient-derived pancreatic adenocarcinoma cell line growth inhibition [RAS]
Conditions: for viability, T/C: stronger effect = lower value
Summary of the method: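 Agents were tested in combination matrices in half-log decrements from a top concentration at or near clinical Cmax (10 microM if undetermined). Targets were multi-cell spheroids of tumour lines plus HUVEC and MSC stromal cells.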

[1] = curve of first compound, second compound 0.0316 µM
[2] = curve of first compound, second compound 0.1 µM
[3] = curve of first compound, second compound 0.316 µM
[4] = curve of first compound, second compound 1 µM
[5] = second compound 0.0316 µM, first compound 0.0316 µM
[6] = second compound 0.0316 µM, first compound 0.1 µM
[7] = second compound 0.0316 µM, first compound 0.316 µM
[8] = second compound 0.0316 µM, first compound 1 µM
[9] = second compound 0.1 µM, first compound 0.0316 µM
[10] = second compound 0.1 µM, first compound 0.1 µM
[11] = second compound 0.1 µM, first compound 0.316 µM
[12] = second compound 0.1 µM, first compound 1 µM
[13] = second compound 0.316 µM, first compound 0.0316 µM
[14] = second compound 0.316 µM, first compound 0.1 µM
[15] = second compound 0.316 µM, first compound 0.316 µM
[16] = second compound 0.316 µM, first compound 1 µM
[17] = second compound 1 µM, first compound 0.0316 µM
[18] = second compound 1 µM, first compound 0.1 µM
[19] = second compound 1 µM, first compound 0.316 µM
[20] = second compound 1 µM, first compound 1 µM
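Note: spheroids exposed to agents for one week before readout.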
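Throughout, for viability, T/C: percent viability relative to DMSO vehicle control wells as 100%.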

With `CC(C)NCC(C(=O)N1CCN(c2ncnc3c2C(C)CC3O)CC1)c1ccc(Cl)cc1` (configuration not stated) the viability, T/C (compound 0.0316 µM) was 105% [middle of 4 runs], the viability, T/C (compound 0.316 µM) was 115% [middle of 4 runs] and the viability, T/C (compound 1 µM) was 105% [middle of 4 runs]. For the same compound, the viability, T/C (compound 3.16 µM) was 64% [middle of 4 runs], the viability, T/C (compound 10 µM) was 34.2% [middle of 4 runs] and the IC50 (curve of compound) was 5.43 µM [middle of 4 runs].

In the case of `CC1(O)CCCC1n1c(=O)c(C(F)F)cc2cnc(NC3CCN(S(C)(=O)=O)CC3)nc21` (configuration not stated) + C=CC(=O)N1CCN(c2nc(OCC3CCCN3C)nc3c(F)c(-c4nc(N)cc(C)c4C(F)(F)F)c(Cl)cc23)C(C)C1, the IC50 (curve of first compound, second compound 0.00316 µM) is reported as 133 nM, the IC50 (curve of first compound, second compound 0.01 µM) is reported as 151 nM and the IC50 [1] is reported as 171 nM. The IC50 [2] was 156 nM, the IC50 [3] was 154 nM and the IC50 [4] was 125 nM. For the same compound, the viability, T/C (second compound 0.00316 µM, first compound 0.0316 µM) was 130%, the viability, T/C (second compound 0.00316 µM, first compound 0.1 µM) was 56.8% and the viability, T/C (second compound 0.00316 µM, first compound 0.316 µM) was 25%. The viability, T/C (second compound 0.00316 µM, first compound 1 µM) was 27%, the viability, T/C (second compound 0.00316 µM, first compound 3.16 µM) was 29.8% and the viability, T/C (second compound 0.00316 µM, first compound 10 µM) was 3.73%. It also gave a viability, T/C (second compound 0.01 µM, first compound 0.0316 µM) of 138%, a viability, T/C (second compound 0.01 µM, first compound 0.1 µM) of 66.5% and a viability, T/C (second compound 0.01 µM, first compound 0.316 µM) of 21.4%. The viability, T/C (second compound 0.01 µM, first compound 1 µM) was 28.2%, the viability, T/C (second compound 0.01 µM, first compound 3.16 µM) was 26.4% and the viability, T/C (second compound 0.01 µM, first compound 10 µM) was 3.99%. The viability, T/C [5] was 129%, the viability, T/C [6] was 66.3% and the viability, T/C [7] was 26.9%. For the same compound, the viability, T/C [8] was 24.9%, the viability, T/C (second compound 0.0316 µM, first compound 3.16 µM) was 26.2% and the viability, T/C (second compound 0.0316 µM, first compound 10 µM) was 3.83%. For the same compound, the viability, T/C [9] was 121%, the viability, T/C [10] was 60% and the viability, T/C [11] was 28.8%. For the same compound, the viability, T/C [12] was 27.8%, the viability, T/C (second compound 0.1 µM, first compound 3.16 µM) was 27.9% and the viability, T/C (second compound 0.1 µM, first compound 10 µM) was 3.1%. The viability, T/C [13] was 117%, the viability, T/C [14] was 61.9% and the viability, T/C [15] was 25.1%. It also gave a viability, T/C [16] of 27.7%, a viability, T/C (second compound 0.316 µM, first compound 3.16 µM) of 23.1% and a viability, T/C (second compound 0.316 µM, first compound 10 µM) of 3.69%. The viability, T/C [17] was 123%, the viability, T/C [18] was 56.8% and the viability, T/C [19] was 21.2%. The viability, T/C [20] was 24%, the viability, T/C (second compound 1 µM, first compound 3.16 µM) was 22.8% and the viability, T/C (second compound 1 µM, first compound 10 µM) was 3.51%.

In the case of `CCC(CC)c1cc(NC2CCC(N)C2)n2nccc2n1` (configuration not stated), the viability, T/C (compound 0.1 µM) is reported as 92.7% [middle of 4 runs], the viability, T/C (compound 0.316 µM) is reported as 109% [middle of 4 runs] and the viability, T/C (compound 3.16 µM) is reported as 2.28% [middle of 4 runs]. The viability, T/C (compound 10 µM) was 2.13% [middle of 4 runs] and the IC50 (curve of compound) was 1.86 µM [middle of 4 runs].

`C=CC(=O)N1CCN(c2nc(OCC3CCCN3C)nc3c(F)c(-c4nc(N)cc(C)c4C(F)(F)F)c(Cl)cc23)C(C)C1` (configuration not stated) + C#Cc1c(F)ccc2cc(O)cc(-c3ncc4c(N5CC6CCC(C5)N6)nc(OCC56CCCN5CC(F)C6)nc4c3F)c12 was tested, and the IC50 [1] was > 1000 nM, the IC50 [2] was > 1000 nM and the IC50 [3] was > 1000 nM. For the same compound, the IC50 [4] was > 1000 nM, the IC50 (curve of first compound, second compound 3.16 µM) was > 1000 nM and the IC50 (curve of first compound, second compound 10 µM) was > 1000 nM. The viability, T/C (second compound 0.0316 µM, first compound 0.00316 µM) was 106%, the viability, T/C (second compound 0.0316 µM, first compound 0.01 µM) was 99.5% and the viability, T/C [5] was 88.7%. For the same compound, the viability, T/C [6] was 98.2%, the viability, T/C [7] was 108% and the viability, T/C [8] was 91.5%. For the same compound, the viability, T/C (second compound 0.1 µM, first compound 0.00316 µM) was 108%, the viability, T/C (second compound 0.1 µM, first compound 0.01 µM) was 107% and the viability, T/C [9] was 91.1%. The viability, T/C [10] was 95.9%, the viability, T/C [11] was 83.8% and the viability, T/C [12] was 83.3%. It also gave a viability, T/C (second compound 0.316 µM, first compound 0.00316 µM) of 105%, a viability, T/C (second compound 0.316 µM, first compound 0.01 µM) of 99.5% and a viability, T/C [13] of 102%. For the same compound, the viability, T/C [14] was 99.7%, the viability, T/C [15] was 97% and the viability, T/C [16] was 80.7%. The viability, T/C (second compound 1 µM, first compound 0.00316 µM) was 97%, the viability, T/C (second compound 1 µM, first compound 0.01 µM) was 111% and the viability, T/C [17] was 117%. It also gave a viability, T/C [18] of 103%, a viability, T/C [19] of 92.5% and a viability, T/C [20] of 96.8%. The viability, T/C (second compound 3.16 µM, first compound 0.00316 µM) was 96.9%, the viability, T/C (second compound 3.16 µM, first compound 0.01 µM) was 107% and the viability, T/C (second compound 3.16 µM, first compound 0.0316 µM) was 113%. The viability, T/C (second compound 3.16 µM, first compound 0.1 µM) was 102%, the viability, T/C (second compound 3.16 µM, first compound 0.316 µM) was 110% and the viability, T/C (second compound 3.16 µM, first compound 1 µM) was 92.7%. It also gave a viability, T/C (second compound 10 µM, first compound 0.00316 µM) of 118%, a viability, T/C (second compound 10 µM, first compound 0.01 µM) of 82.8% and a viability, T/C (second compound 10 µM, first compound 0.0316 µM) of 91.6%. For the same compound, the viability, T/C (second compound 10 µM, first compound 0.1 µM) was 96.4%, the viability, T/C (second compound 10 µM, first compound 0.316 µM) was 89.9% and the viability, T/C (second compound 10 µM, first compound 1 µM) was 92.2%.

`O=C(c1ccc(F)c(F)c1Nc1ccc(I)cc1F)N1CC(O)([C@@H]2CCCCN2)C1` + CCn1c(-c2cc(N3CCN(C)CC3)cnc2C(C)OC)c2c3cc(ccc31)-c1csc(n1)CC(NC(=O)C1CC1C)C(=O)N1CCCC(N1)C(=O)OCC(C)(C)C2 showed an IC50 (curve of first compound, second compound 0.000949 µM) of 641 nM, an IC50 (curve of first compound, second compound 0.003 µM) of 596 nM and an IC50 (curve of first compound, second compound 0.00949 µM) of 228 nM. For the same compound, the IC50 (curve of first compound, second compound 0.03 µM) was 124 nM, the IC50 (curve of first compound, second compound 0.0949 µM) was 45.2 nM and the IC50 (curve of first compound, second compound 0.3 µM) was 32.1 nM. It also gave a viability, T/C (second compound 0.000949 µM, first compound 0.00316 µM) of 101%, a viability, T/C (second compound 0.000949 µM, first compound 0.01 µM) of 89.9% and a viability, T/C (second compound 0.000949 µM, first compound 0.0316 µM) of 106%. It also gave a viability, T/C (second compound 0.000949 µM, first compound 0.1 µM) of 77.7%, a viability, T/C (second compound 0.000949 µM, first compound 0.316 µM) of 74.2% and a viability, T/C (second compound 0.000949 µM, first compound 1 µM) of 36.2%. The viability, T/C (second compound 0.003 µM, first compound 0.00316 µM) was 92%, the viability, T/C (second compound 0.003 µM, first compound 0.01 µM) was 90.8% and the viability, T/C (second compound 0.003 µM, first compound 0.0316 µM) was 94.7%. The viability, T/C (second compound 0.003 µM, first compound 0.1 µM) was 74.5%, the viability, T/C (second compound 0.003 µM, first compound 0.316 µM) was 75.5% and the viability, T/C (second compound 0.003 µM, first compound 1 µM) was 32.2%. It also gave a viability, T/C (second compound 0.00949 µM, first compound 0.00316 µM) of 83.8%, a viability, T/C (second compound 0.00949 µM, first compound 0.01 µM) of 96.2% and a viability, T/C (second compound 0.00949 µM, first compound 0.0316 µM) of 87.8%. The viability, T/C (second compound 0.00949 µM, first compound 0.1 µM) was 82.5%, the viability, T/C (second compound 0.00949 µM, first compound 0.316 µM) was 37% and the viability, T/C (second compound 0.00949 µM, first compound 1 µM) was 22.6%. It also gave a viability, T/C (second compound 0.03 µM, first compound 0.00316 µM) of 87.3%, a viability, T/C (second compound 0.03 µM, first compound 0.01 µM) of 79.3% and a viability, T/C (second compound 0.03 µM, first compound 0.0316 µM) of 76.2%. It also gave a viability, T/C (second compound 0.03 µM, first compound 0.1 µM) of 54.2%, a viability, T/C (second compound 0.03 µM, first compound 0.316 µM) of 29.9% and a viability, T/C (second compound 0.03 µM, first compound 1 µM) of 15.5%. It also gave a viability, T/C (second compound 0.0949 µM, first compound 0.00316 µM) of 97.5%, a viability, T/C (second compound 0.0949 µM, first compound 0.01 µM) of 93% and a viability, T/C (second compound 0.0949 µM, first compound 0.0316 µM) of 52.5%. For the same compound, the viability, T/C (second compound 0.0949 µM, first compound 0.1 µM) was 34.6%, the viability, T/C (second compound 0.0949 µM, first compound 0.316 µM) was 21.1% and the viability, T/C (second compound 0.0949 µM, first compound 1 µM) was 11%. The viability, T/C (second compound 0.3 µM, first compound 0.00316 µM) was 93.1%, the viability, T/C (second compound 0.3 µM, first compound 0.01 µM) was 76.5% and the viability, T/C (second compound 0.3 µM, first compound 0.0316 µM) was 52%. For the same compound, the viability, T/C (second compound 0.3 µM, first compound 0.1 µM) was 23.7%, the viability, T/C (second compound 0.3 µM, first compound 0.316 µM) was 19.7% and the viability, T/C (second compound 0.3 µM, first compound 1 µM) was 10.4%.
